Where “and” joins values, the source holds several entries; their conditions need not be identical. Equal entries are not always repeated. Entries after “also recorded” stand apart in the source; their conditions may differ. Where two headings read alike, the source gives them in different places.
Key:
Assay in all cases: GloSensor cAMP assay, antagonism of PGE2-induced cAMP
Type in all cases: cell-based
[1] = target: T1, EP4 S319A (Homo sapiens, UniProt P35408, S319A); settings: for cAMP activity (∆pIC50 from EP4 WT): Grapiprant, S319A; for ΔpIC50: PGE2 0.5 nM, pIC50 mutant - pIC50 WT, mean
T1 construct: The full-length EP2 or EP4 was cloned into the pcDNA3.1 vector (Invitrogen), incorporating an N-terminal FLAG tag; expressed in transfected cells; host or cells: AD293
T1 sequence (P35408 whole entry S319A): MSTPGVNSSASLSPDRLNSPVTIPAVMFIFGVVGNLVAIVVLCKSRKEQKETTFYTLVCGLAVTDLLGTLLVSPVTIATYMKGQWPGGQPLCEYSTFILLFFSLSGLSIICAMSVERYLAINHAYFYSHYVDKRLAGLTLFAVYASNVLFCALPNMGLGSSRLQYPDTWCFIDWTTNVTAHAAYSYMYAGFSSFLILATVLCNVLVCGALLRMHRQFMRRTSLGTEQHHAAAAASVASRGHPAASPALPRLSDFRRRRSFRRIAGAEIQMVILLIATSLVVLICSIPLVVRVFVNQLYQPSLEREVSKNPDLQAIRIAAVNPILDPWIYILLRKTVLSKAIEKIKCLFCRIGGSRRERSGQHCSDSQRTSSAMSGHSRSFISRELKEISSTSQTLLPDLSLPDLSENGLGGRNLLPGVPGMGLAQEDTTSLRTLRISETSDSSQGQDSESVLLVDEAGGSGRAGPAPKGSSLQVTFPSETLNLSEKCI
Protocol: (§1) The full-length EP2 or EP4 was cloned into the pcDNA3.1 vector (Invitrogen), incorporating an N-terminal FLAG tag. AD293 cells were seeded in six-well plates containing DMEM supplemented with 10% dialyzed FBS 1 day prior to transfection. Following overnight growth, cells were transfected with a 1:1 ratio of receptor construct and GloSensor22F cAMP biosensor (Promega) plasmids.
(§2) Twenty-four hours post-transfection, the cells were transferred to CO2-independent media containing 2% GloSensor cAMP Reagent (Promega) and distributed into 384-well assay plates at a density of 4000 cells per well in 10 μL. […] The plates were then incubated at 37 °C for an additional hour before luminescence measurements were taken using an EnVision plate reader.
(§3) Data analysis was performed using GraphPad Prism software v8.0.1. A nonlinear regression analysis, employing a sigmoidal dose–response model, was conducted to determine the Emax values and half-maximum inhibitory concentrations (IC50) for each compound tested.

[2] = target: T2, EP4 V72A (Homo sapiens, UniProt P35408, V72A); settings: for cAMP activity (∆pIC50 from EP4 WT): Grapiprant, V72A; for ΔpIC50: PGE2 0.5 nM, pIC50 mutant - pIC50 WT, mean
T2 construct: The full-length EP2 or EP4 was cloned into the pcDNA3.1 vector; FLAG (N); expressed in transfected cells; host or cells: AD293 cells
T2 sequence (P35408 whole entry V72A): as the sequence (P35408 whole entry S319A) above, with V72A, A319S counted along it
Protocol: as §1, §2, §3

[3] = target: T3, EP4 WT (Homo sapiens, UniProt P35408); settings: for remaining activity at 10 µM / remaining activity at 1 µM / remaining activity at 0.1 µM / remaining activity at 0.01 µM / remaining activity at 0.001 µM / remaining activity at 0.0001 µM / remaining activity at 10 pM / remaining activity at 1 pM: 1 h; for remaining activity at 0.1 µM: Grapiprant log([M]) -7
T3 construct: The full-length EP2 or EP4 was cloned into the pcDNA3.1 vector; FLAG (N); expressed in transfected cells; host or cells: AD293 cells
T3 sequence (P35408 whole entry): as the sequence (P35408 whole entry S319A) above, with A319S counted along it
Protocol: as §1, §2, §3

[4] = target: T4, EP4 V320A (Homo sapiens, UniProt P35408, V320A); settings: for ΔpIC50: PGE2 0.5 nM, pIC50 mutant - pIC50 WT, mean
T4 construct: The full-length EP2 or EP4 was cloned into the pcDNA3.1 vector (Invitrogen), incorporating an N-terminal FLAG tag; expressed in transfected cells; host or cells: AD293
T4 sequence (P35408 whole entry V320A): as the sequence (P35408 whole entry S319A) above, with A319S, V320A counted along it
Protocol: as §1, §2, §3

[5] = target: EP2 WT (Homo sapiens, UniProt P43116); parameters: The full-length EP2 or EP4 was cloned into the pcDNA3.1 vector; FLAG (N); expressed in transfected cells; host or cells: AD293 cells; settings: 1 h, single experiments 1st-3rd, Fig. S1A
Sequence of EP2 WT (P43116 whole entry): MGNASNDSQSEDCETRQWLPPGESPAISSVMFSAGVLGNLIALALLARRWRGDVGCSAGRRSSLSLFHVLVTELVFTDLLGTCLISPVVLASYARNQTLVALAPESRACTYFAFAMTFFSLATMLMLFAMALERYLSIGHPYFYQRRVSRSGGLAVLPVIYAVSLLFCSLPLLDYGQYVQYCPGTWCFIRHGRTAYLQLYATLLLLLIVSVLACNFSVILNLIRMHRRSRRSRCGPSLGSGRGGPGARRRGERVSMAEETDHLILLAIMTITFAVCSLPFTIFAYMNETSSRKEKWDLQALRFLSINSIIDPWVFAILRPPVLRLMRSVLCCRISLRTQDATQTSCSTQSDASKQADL
Protocol: as §1, §2, §3

[6] = 1 h, Grapiprant log([M]) -7, read-out: % cAMP activity (normalized to WT)
[7] = 1 h, Grapiprant log([M]) -8, read-out: % cAMP activity (normalized to WT)
[8] = 1 h, Grapiprant log([M]) -9, read-out: % cAMP activity (normalized to WT)
[9] = 1 h, Grapiprant log([M]) -10, read-out: % cAMP activity (normalized to WT)
[10] = 1 h, Grapiprant log([M]) -11, read-out: % cAMP activity (normalized to WT)
[11] = 1 h, Grapiprant log([M]) -12, read-out: % cAMP activity (normalized to WT)

IC50 [1]: 0.186 µM | remaining activity at 10 µM ([1]; 1 h, Grapiprant log([M]) -5, read-out: % cAMP activity (normalized to WT)): 3.59% | remaining activity at 1 µM ([1]; 1 h, Grapiprant log([M]) -6, read-out: % cAMP activity (normalized to WT)): 3.85% | remaining activity at 0.1 µM [1, 6]: 22.9% | remaining activity at 0.01 µM [1, 7]: 31.9% | remaining activity at 0.001 µM [1, 8]: 32.1% | remaining activity at 0.0001 µM [1, 9]: 27.9% | remaining activity at 10 pM [1, 10]: 33% | remaining activity at 1 pM [1, 11]: 28.4% | cAMP activity (∆pIC50 from EP4 WT) ([1]; Mean): -0.645 | cAMP activity (∆pIC50 from EP4 WT) ([1]; single experiments 1st-3rd): -0.523 and -0.642 and -0.769 | ΔpIC50 [1]: -0.64 ± 0.07 | ΔpIC50 ([1]; listed as grapiprant): reduced the potency | IC50 [2]: 0.11 µM | remaining activity at 0.1 µM [2, 6]: 25.9% | remaining activity at 0.01 µM [2, 7]: 35.8% | remaining activity at 0.001 µM [2, 8]: 45% | remaining activity at 0.0001 µM [2, 9]: 46.7% | remaining activity at 10 pM [2, 10]: 54.1% | remaining activity at 1 pM [2, 11]: 41% | cAMP activity (∆pIC50 from EP4 WT) ([2]; Mean): -0.294 | cAMP activity (∆pIC50 from EP4 WT) ([2]; single experiments 1st-3rd): -0.217 and -0.413 and -0.252 | ΔpIC50 [2]: -0.29 ± 0.06 | ΔpIC50 ([2]; listed as grapiprant): reduced the potency | IC50 [3]: 0.0355 µM | remaining activity at 10 µM ([3]; Grapiprant log([M]) -5, read-out: % cAMP activity (normalized to WT)): 2.75% | remaining activity at 1 µM ([3]; Grapiprant log([M]) -6, read-out: % cAMP activity (normalized to WT)): 3.71% | remaining activity at 0.1 µM ([3]; read-out: % cAMP activity (normalized to WT)): 21% | remaining activity at 0.1 µM ([3]; single experiments 1st-3rd, Fig. S7C, read-out: % cAMP activity (normalized to WT)): 30.1% | remaining activity at 0.01 µM ([3]; Grapiprant log([M]) -8, read-out: % cAMP activity (normalized to WT)): 83.1% | remaining activity at 0.01 µM ([3]; Grapiprant log([M]) -8, single experiments 1st-3rd, Fig. S7C, read-out: % cAMP activity (normalized to WT)): 88.1% | remaining activity at 0.001 µM ([3]; Grapiprant log([M]) -9, read-out: % cAMP activity (normalized to WT)): 96.3% | remaining activity at 0.0001 µM ([3]; Grapiprant log([M]) -10, read-out: % cAMP activity (normalized to WT)): 90.2% | remaining activity at 0.0001 µM ([3]; Grapiprant log([M]) -10, single experiments 1st-3rd, Fig. S7C, read-out: % cAMP activity (normalized to WT)): 96.7% | remaining activity at 10 pM ([3]; Grapiprant log([M]) -11, read-out: % cAMP activity (normalized to WT)): 97.9% | remaining activity at 10 pM ([3]; Grapiprant log([M]) -11, single experiments 1st-3rd, Fig. S7C, read-out: % cAMP activity (normalized to WT)): 101% | remaining activity at 1 pM ([3]; Grapiprant log([M]) -12, read-out: % cAMP activity (normalized to WT)): 103% | remaining activity at 1 pM ([3]; Grapiprant log([M]) -12, single experiments 1st-3rd, Fig. S7C, read-out: % cAMP activity (normalized to WT)): 93.3% | remaining activity at 10 µM ([3]; read-out: % cAMP activity EP4 (normalized to Grapiprant), ligand log([M]) -5, single experiments 1st-3rd, Fig. S1A): 2.69% | remaining activity at 1 µM ([3]; read-out: % cAMP activity EP4 (normalized to Grapiprant), ligand log([M]) -6, single experiments 1st-3rd, Fig. S1A): 5.1% | remaining activity at 0.01 µM ([3]; read-out: % cAMP activity EP4 (normalized to Grapiprant), ligand log([M]) -8, single experiments 1st-3rd, Fig. S1A): 94.2% | remaining activity at 0.001 µM ([3]; read-out: % cAMP activity EP4 (normalized to Grapiprant), ligand log([M]) -9, single experiments 1st-3rd, Fig. S1A): 97% | remaining activity at 0.0001 µM ([3]; read-out: % cAMP activity EP4 (normalized to Grapiprant), ligand log([M]) -10, single experiments 1st-3rd, Fig. S1A): 100% | remaining activity at 10 pM ([3]; read-out: % cAMP activity EP4 (normalized to Grapiprant), ligand log([M]) -11, single experiments 1st-3rd, Fig. S1A): 93.5% | remaining activity at 1 pM ([3]; read-out: % cAMP activity EP4 (normalized to Grapiprant), ligand log([M]) -12, single experiments 1st-3rd, Fig. S1A): 102% | cAMP activity (∆pIC50 from EP4 WT) ([3]; Grapiprant, WT, single experiments 1st-3rd): 0.1372 and 0.1162 and -0.1508 | IC50 [4]: 0.339 µM | remaining activity at 0.0001 µM [4, 9]: 39.6% | cAMP activity (∆pIC50 from EP4 WT) ([4]; Grapiprant, V320A, Mean): -0.775 | ΔpIC50 [4]: -0.78 ± 0.12 | ΔpIC50 ([4]; listed as grapiprant): reduced the potency | remaining activity at 10 µM ([5]; read-out: % cAMP activity on EP2 (normalized to PF-04418948), ligand log([M]) -5): 90.7% | remaining activity at 1 µM ([5]; read-out: % cAMP activity on EP2 (normalized to PF-04418948), ligand log([M]) -6): 105% | remaining activity at 0.1 µM ([5]; read-out: % cAMP activity on EP2 (normalized to PF-04418948), ligand log([M]) -7): 107% | remaining activity at 0.01 µM ([5]; read-out: % cAMP activity on EP2 (normalized to PF-04418948), ligand log([M]) -8): 113% | remaining activity at 0.001 µM ([5]; read-out: % cAMP activity on EP2 (normalized to PF-04418948), ligand log([M]) -9): 115% | remaining activity at 0.0001 µM ([5]; read-out: % cAMP activity on EP2 (normalized to PF-04418948), ligand log([M]) -10): 114% | remaining activity at 10 pM ([5]; read-out: % cAMP activity on EP2 (normalized to PF-04418948), ligand log([M]) -11): 120% | remaining activity at 1 pM ([5]; read-out: % cAMP activity on EP2 (normalized to PF-04418948), ligand log([M]) -12): 107%
SMILES: CCc1nc2c(C)nc(C)cc2n1-c1ccc(CCNC(=O)NS(=O)(=O)c2ccc(C)cc2)cc1 [Grapiprant]
antagonism profile EP4 versus EP2 (in words) ([3]; cAMP accumulation assay upon PGE2 stimulation, Appendix Fig. S1A): selective antagonists of EP2 and EP4, respectively; also recorded: strong selectivity
